For the first data set, the target named is T1, truncated form of PTP1 B (corresponding to the first 321 amino acids) (Homo sapiens, UniProt P18031).
T1 construct: truncated form of PTP1 B (corresponding to the first 321 amino acids); made in house; host or cells: E. coli
T1 sequence (P18031 1-321): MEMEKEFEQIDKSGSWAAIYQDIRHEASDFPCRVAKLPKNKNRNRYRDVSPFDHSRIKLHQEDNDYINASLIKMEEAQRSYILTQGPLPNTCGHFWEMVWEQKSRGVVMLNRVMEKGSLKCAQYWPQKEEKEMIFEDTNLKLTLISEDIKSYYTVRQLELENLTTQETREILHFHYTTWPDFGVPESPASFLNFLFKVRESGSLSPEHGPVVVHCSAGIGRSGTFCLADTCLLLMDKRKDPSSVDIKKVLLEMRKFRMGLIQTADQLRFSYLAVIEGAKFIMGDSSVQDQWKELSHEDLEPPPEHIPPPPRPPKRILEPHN
Description: Inhibition of PTP1B (p-nitrophenyl phosphate substrate, enzyme kinetic analysis). Type of data set: biochemical. The following applies: truncated PTP1B expressed in E. coli; substrate p-nitrophenyl phosphate 0.16 to 10 mM; 50 mM HEPES pH 7.0; 60 minutes; read-out: PTP1B K1 values. As to the method: The compounds are evaluated for biological activity with a truncated form of PTP1 B (corresponding to the first 321 amino acids), which was expressed in E. coli and purified to apparent homogeneity using published procedures well-known to those skilled in the art. The enzyme reactions are carried out using standard conditions essentially as described by Burke et al. (Biochemistry 35; 15989–15996 (1996)). The assay conditions are as follows. Appropriate concentrations of the compounds of the invention are added to the reaction mixtures containing different concentrations of the substrate, p-nitrophenyl phosphate (range: 0.16 to 10 mM—final assay concentration). The buffer used was 50 mM HEPES pH 7.0, 100 mM sodium chloride, 0.1% (w/v) bovine serum albumin, 5 mM glutathione, and 1 mM EDTA.). The reaction was started by addition of the enzyme and carried out in microtiter plates at […] for 60 minutes. The reactions are stopped by addition of NaOH. The enzyme activity was determined by measurement of the absorbance at 405 nm with appropriate corrections for absorbance at 405 nm of the compounds and p-nitrophenyl phosphate. The data are analyzed using nonlinear regression fit to classical Michaelis Menten enzyme kinetic models. Inhibition is expressed as Ki values in μM.
As to `O=C(O)C(=O)Nc1sc2c(c1C(=O)O)CC(CN1C(=O)c3cccc(O)c3C1=O)OC2` (centres unmarked) [Example 4, 5-(4-Hydroxy-1,3-dioxo-1,3-dihydro-isoindol-2-ylmethyl)-2-(oxalyl-amino)-4,7-dihydro-5-H-thieno[2,3-c]pyran-3-carboxylic acid], the Ki stood at 1500 nM.
Same read-out and setting: the same measure for `O=C(O)C(=O)Nc1sc2c(c1C(=O)O)CCOC2CN1C(=O)CSC1=O` (centres unmarked) [Example 23, 7-(2,4-Dioxo-Thiazolidin-3-ylmethyl)-2-(oxalyl-amino)-4,7-dihydro-5H-thieno[2,3-c]pyran-3-carboxylic acid]: 9700 nM; for `O=C(O)C(=O)Nc1sc2c(c1C(=O)O)CCOC2CN1C(=O)c2cccc(O)c2C1=O` (centres unmarked) [Example 25, 7-(4-Hydroxy-1,3-dioxo-1,3-dihydro-isoindol-2-ylmethyl)-2-(oxalyl-amino)-4,7-dihydro-5H-thieno[2,3-c]pyran-3-carboxylic acid]: 7000 nM.
Still for that read-out and setting: for `COc1ccc2c(c1)C(=O)N(CC1OCCc3c1sc(NC(=O)C(=O)O)c3C(=O)O)C2=O` (centres unmarked) [Example 26, 5-(5-Methoxy-1,3-dioxo-1,3-dihydro-isoindol-2-ylmethyl)-2-(oxalyl-amino)-4,7-dihydro-5H-thieno[2,3-c]pyran-3-carboxylic acid] the value was 1200 nM; for `O=C(O)C(=O)Nc1sc2c(c1C(=O)O)CCOC2CN1C(=O)c2cc3c(cc2C1=O)OCO3` (centres unmarked) [Example 27], 3600 nM; for `O=C(O)C(=O)Nc1sc2c(c1C(=O)O)CCOC2CNC(=O)c1ccc2c(c1)OCO2` (centres unmarked) [Example 28, 7-(((Benzo[1,3]dioxole-5-carbonyl)amino)methyl)-2-(oxalyl-amino)-4,7-dihydro-5H-thieno[2,3-c]pyran-3-carboxylic acid], 8200 nM.
Turning to `CC(=O)Nc1ccc(/C=C2\SC(=O)N(CC3OCCc4c3sc(NC(=O)C(=O)O)c4C(=O)O)C2=O)cc1` (centres unmarked) [Example 39, 7-(5-(4-Acetylamino-benzylidene)-2,4-dioxo-thiazolidin-3-ylmethyl)-2-(oxalyl-amino)-4,7-dihydro-5H-thieno[2,3-c]pyran-3-carboxylic acid], the Ki is 7500 nM.
The same measure, in the same setting: the same measure for `O=C(O)C(=O)Nc1sc2c(c1C(=O)O)CCOC2CN1C(=O)S/C(=C\c2c[nH]cn2)C1=O` (centres unmarked) [Example 41, 7-(5-(1H-imidazol-4(5)-ylmethylene)-2,4-dioxo-thiazolidin-3-ylmethyl)-2-(oxalyl-amino)-4,7-dihydro-5H-thieno[2,3-c]pyran-3-carboxylic acid]: 1500 nM; for `O=C(O)C(=O)Nc1sc2c(c1C(=O)O)CCOC2CN1C(=O)c2ccccc2S1(=O)=O` (centres unmarked) [Example 46, 2-(Oxalyl-amino)-7-(1,1,3-trioxo-1,3-dihydro-1H-benzo[d]isothiazol-2-ylmethyl)-4,7-dihydro-5H-thieno[2,3-c]pyran-3-carboxylic acid]: 2300 nM; for `O=C(O)C(=O)Nc1sc2c(c1C(=O)O)CCOC2COC1=NS(=O)(=O)c2ccccc21` (centres unmarked) [Example 47]: 800 nM.
Same read-out and setting: the same measure for `O=C(O)C(=O)Nc1sc2c(c1C(=O)O)CCOC2CN1C(=O)C=C(c2ccccc2)S1(=O)=O` (centres unmarked) [Example 49, 2-(Oxalyl-amino)-7-(1,1,3-trioxo-5-phenyl-1,3-dihydro-isothiazol-2-ylmethyl)-4,7-dihydro-5H-thieno[2,3-c]pyran-3-carboxylic acid]: 1400 nM; for `O=C(O)C(=O)Nc1sc2c(c1C(=O)O)CCOC2COC1=NS(=O)(=O)C(c2ccccc2)=C1` (centres unmarked) [Example 50, 7-(1,1-Dioxo-5-phenyl-1H-isothiazol-3-yloxymethyl)-2-(oxalyl-amino)-4,7-dihydro-5H-thieno[2,3-c]pyran-3-carboxylic acid]: 3000 nM; for `O=C(O)C(=O)Nc1sc2c(c1C(=O)O)CCOC2Cn1c(=O)c2ccccc2[s+]1[O-]` (centres unmarked) [Example 55, 7-(1,3-Dioxo-1,3-dihydro-benzo[d]isothiazol-2-ylmethyl)-2-(oxalyl-amino)-4,7-dihydro-5H-thieno[2,3-c]pyran-3-carboxylic acid]: 1300 nM.

System in another data set: not given
Experiment: not given
Conditions: not given
In the case of `O=C(O)C(=O)Nc1sc2c(c1C(=O)O)CCOC2CN1C(=O)S/C(=C\c2c[nH]cn2)C1=O` (centres unmarked) [Example 41, 7-(5-(1H-imidazol-4(5)-ylmethylene)-2,4-dioxo-thiazolidin-3-ylmethyl)-2-(oxalyl-amino)-4,7-dihydro-5H-thieno[2,3-c]pyran-3-carboxylic acid], the melting point (usually the temperature of the solid-liquid transition) was over 250 °C.
